Patent US11497765B1, “Thioctamer expedites wound healing” (King Abdulaziz University, priority 2022, dated 2022)

Key:
[1] = test system: TNF-α; test: Immunohistochemical assessment of TNF-α expression in wounded skin; type: in vivo, male Wistar rats; details: wounded skin of diabetic rats; negative control 0.47±0.048; mean±SD, n=6
Procedure: (§1) Rats were anesthetized by xylazine and ketamine (10 mg/kg and 100 mg/kg, respectively IP injection). The dorsal surface was shaved, the skin was sterilized by povidone-iodine solution, and an excision circle (1 cm diameter) was made on dorsal surface. After the excision, the wounds were cleaned and dried using sterile saline solution and sterile pads, respectively. Subcutaneous injection of 2% solution of lidocaine hydrochloride having 1:80,000 epinephrine (4.4 mg/kg) was performed near the wound area to reduce pain. […] All treatments were topically applied daily for a total of 10 days. The wounds were wrapped with sterile gauze dressings and changed daily. At days 0, 4, 7, and 10, wounds were photographed and assessed. Animals were sacrificed by beheading at the end of day 10 and the skin of wound area was cut out. […]

[2] = test system: excision wound on dorsal surface of diabetic rats; test: Wound closure in wounded diabetic rats, topical hydrogel treatment; type: in vivo, male Wistar rats; details: day 7, topical daily, 1.5% w/v HPMC hydrogel (TA 4.1, GA 12.5, thioctamer 16.6 mg/g gel), mean±SD, n=6
Procedure: Rats were anesthetized by xylazine and ketamine (10 mg/kg and 100 mg/kg, respectively IP injection). The dorsal surface was shaved, the skin was sterilized by povidone-iodine solution, and an excision circle (1 cm diameter) was made on dorsal surface. After the excision, the wounds were cleaned and dried using sterile saline solution and sterile pads, respectively. Subcutaneous injection of 2% solution of lidocaine hydrochloride having 1:80,000 epinephrine (4.4 mg/kg) was performed near the wound area to reduce pain. […] At days 0, 4, 7, and 10, wounds were photographed and assessed. […]

[3] = test system: wound tissues of diabetic rats; test: Histological investigation of wound tissue (H&E, Masson's trichrome); type: in vivo, male Wistar rats; details: for Ang = Angio-genesis / CD = Collagen deposition / FP = Fibroblast proliferation / GT = Granulation tissue / IC = Inflammatory cell infiltration / RE = Re-epithelization: day 10 wound healing, topical application, diabetic rats; for healing rate by histology (in words): wound tissues collected on day 10, H&E or Masson's trichrome
Procedure: Thirty 210-240 g male Wistar rats were provided by KAU's animal facility and were maintained on a 12-hr dark-light cycle at a temperature of 22 ±2° C. […] Induction of diabetes in rats was carried out as formerly described, i.e. prior to the study, rats were intra-peritoneally injected with streptozotocin (50 mg/kg) for two weeks. Go Accu-Chek was utilized for assessing the level of fasting blood glucose (Roche, Mannheim, Germany) Moderate-diabetic rats with level of fasting blood glucose (200-300 mg/100 mL) were chosen for the experiment.
Rats were anesthetized by xylazine and ketamine (10 mg/kg and 100 mg/kg, respectively IP injection). The dorsal surface was shaved, the skin was sterilized by povidone-iodine solution, and an excision circle (1 cm diameter) was made on dorsal surface. After the excision, the wounds were cleaned and dried using sterile saline solution and sterile pads, respectively. Subcutaneous injection of 2% solution of lidocaine hydrochloride having 1:80,000 epinephrine (4.4 mg/kg) was performed near the wound area to reduce pain. […] All treatments were topically applied daily for a total of 10 days. The wounds were wrapped with sterile gauze dressings and changed daily. At days 0, 4, 7, and 10, wounds were photographed and assessed. Animals were sacrificed by beheading at the end of day 10 and the skin of wound area was cut out. From each animal, a part of the obtained skin was retained in 10% neutral formalin, while the other part was preserved at -80° C. for further analyses.
Wound tissues were preserved for 24 h in 10% neutral formalin, then dehydrated using serial concentrations of ethanol, passed through xylene as a clearing agent, and inserted in paraffin. Tissues' paraffin blocks were cut into 5 μm thickness that were rehydrated after dewaxing. Some sections were stained using E&H (eosin and hematoxylin), whereas the remaining were stained with MT (Masson's trichrome). Histological investigation was carried out by a pathologist without prior knowledge of the groups'treatment. On the basis of the abundance/degree of inflammatory cell infiltration, proliferation of fibroblasts, deposition of collagen, angiogenesis, tissue granulation, and re-epithelization, scores were assigned in a range from - to +++.

[4] = test system: IL-6; test: Immunohistochemical assessment of IL-6 expression in wounded skin; type: in vivo, male Wistar rats; details: wounded skin of diabetic rats; negative control 0.42±0.044; mean±SD, n=6
Procedure: as §1

[5] = Thioctamer zeta potential and particle size evaluation (Zetasizer Nano ZSP); type: physicochemical
Procedure: Thioctamer was prepared by conjugation of GA and TA in a 1:1 molar ratio. TA was solvated in deionized water (with added of triethanolamine in a 1:1 molar ratio with the amount of TA). GA was dissolved separately in deionized water. The two aqueous solutions were mixed and then vortexed for 60 sec. The prepared thioctamer was assessed for zeta potential and particle size utilizing a Zetasizer Nano ZSP (Malvern Instruments Ltd., Malvern, UK).

[6] = test system: wounds in diabetic rats; details: cited from earlier work
[7] = test system: wound on rat skin; details: seventh day after surgery; topical; negative control 43.0±17.4%; cited from earlier work

| Compound | TNF-α expression (immunohistochemistry, image analysis) [1] | % wound contraction (healing) [2] [%] | Ang = Angio-genesis [3] | CD = Collagen deposition [3] | FP = Fibroblast proliferation [3] | GT = Granulation tissue [3] | IC = Inflammatory cell infiltration [3] | RE = Re-epithelization [3] | healing rate by histology (in words) [3] | IL-6 expression (immunohistochemistry, image analysis) [4] | zeta potential [5] [mV] | time to complete wound closure [6] [days] | healing rate [7] [%] |
| --- | --- | --- | --- | --- | --- | --- | --- | --- | --- | --- | --- | --- | --- |
| L-alanine compound with L-tyrosine compound with L-lysine compound with L-glutamic acid acetic acid [GA] | 0.34±0.05 | 62.6±7.1 | + | ++ | ++ | ++ | +++ | ++ | moderate healing rate | 0.318±0.033 | – | – | – |
| O=C(O)CCCCC1CCSS1 (centres unmarked) [TA, thioctic acid] | 0.374±0.039 | 56.5±5.8 | + | ++ | ++ | ++ | +++ | ++ | moderate healing rate | 0.324±0.043 | -26.6±5.39 | 8 | 60.7±8.4 |
